From patent US20020137929A1, “1 - (3-heterocyclylphenyl) isothiourea, -isourea, -guanidine and -amidine herbicidal agents” (Intellectual Property Department, BASF Aktiengesellschaft, priority 1998, published 2002) come the findings set out here.

Data set [1] relates to CHEAL (Lambsquarters, Common). Nature of the data set: Preemergence herbicidal evaluation. The format is in vivo, Chenopodium album. The following applies: rated 4-5 weeks after treatment; for CHEAL rating: preemergence, 0-9 scale. The procedure, abridged: (§1)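 In this greenhouse assay, monocot and dicot seeds are planted in soil and treated prior to emergence with an aqueous acetone spray (about 0.0156-0.500 kg/ha). Plants are assessed visually against control on a 0-9 scale after 4-5 weeks.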

Data set [2] concerns ORYSAT (Rice, Tebonnet). The data set can be described thus: Rice tolerance to post-transplant applications, flooded paddy conditions (Table IV). It is filed as in vivo, Oryza sativa, (L.) Tebonnet. The procedure, abridged:
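Post-transplant paddy test in greenhouse: a.i. about 0.0313 to 0.500 kg/ha applied into the flood water. Plants are rated 0-9 for overall appearance relative to control three to four weeks on.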

For data set [3], the system named is ORYSAT (Rice, Tebonnet). The data set can be described thus: Rice tolerance to post-transplant applications, flooded paddy conditions (Table III). It is filed as in vivo, Oryza sativa, (L.) Tebonnet. The procedure, abridged:
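Two ten-day-old Tebonnet seedlings transplanted into flooded silt loam (water 1.5 to 3 cm above soil); three days later the water surface was treated with compound in aqueous/acetone 50/50 at about 0.0313 to 0.500 kg/ha. Visual 0-9 injury rating versus control after three to four weeks in greenhouse.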

For data set [4], the system named is CYPSE (Flatsedge). Nature of the data set: Preemergence weed control under flooded paddy conditions. The format is in vivo, Cyperus serotinus. As to conditions: rated 3-4 weeks after treatment. The procedure, abridged: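 First, seeds or propagules go into the top 0.5 cm of silt loam; next, water is held 1.5 to 3 cm over the soil; then compound (50/50 acetone/water) is pipetted into it at about 0.0313 to 0.500 kg/ha; finally plants are rated visually 0-9 after three to four weeks.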

Data set [5] relates to ECHORC (Watergrass (Calif.)). The description is as above. The format is in vivo, Echinochloa oryzoides. The following applies: rated 3-4 weeks after treatment. Put shortly: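 Flooded-pot preemergence screen with silt loam and seeds in the upper 0.5 cm. Dose about 0.0313 to 0.500 kg/ha, delivered into flood water; visual 0-9 score after 3 to 4 weeks.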
In data set [6] the test system is MOOVA (Monochoria). Nature of the data set: Postemergence weed control under flooded paddy conditions. The following applies: postemergence weeds, rated 3 to 4 weeks after treatment. The format is in vivo, Monochoria vaginalis. Put shortly:
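Weeds 3 to 5 cm tall and rice seedlings at the 1.5 to 2.5 leaf stage were flooded, with water held 1.5 to 3 cm above the soil. Compounds in 50/50 v/v aqueous/acetone went into the flood water at about 0.0313 to 0.500 kg/ha. Visual 0-9 ratings versus control were made 3 to 4 weeks later.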

Data set [7] relates to ECHCG (Barnyardgrass). Nature of the data set: Postemergence herbicidal evaluation. It is filed as in vivo, Echinochloa crus-galli. As to conditions: for ECHCG herbicidal rating: postemergence. The procedure, abridged:
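Each compound, dispersed in an acetone/water mix (50/50) carrying 0.5% TWEEN 20, is nozzle-sprayed at 40 psi on approximately two-week-old seedlings at about 0.0156–0.500 kg/ha. Plants are assessed 4–5 weeks afterward on a 0–9 scale relative to control; duplicate tests are averaged.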

Data set [8] deals with ORYSAT (Rice, Tebonnet). Nature of the data set: Preemergence herbicidal evaluation. It is filed as in vivo, Oryza sativa, (L.) Tebonnet. The following applies: rated 4-5 weeks after treatment; for ORYSAT rating: preemergence, 0-9 scale. Put shortly:
as §1

Molecules are shown by their SMILES.

For the compound `Cn1c(C(F)(F)F)cc(=O)n(-c2cc(/N=C3/SC(CC(=O)O)C(=O)N3CC(=O)O)c(Cl)cc2F)c1=O` (stereo not shown) [Compound 61, 2-{{2-Chloro-5-[3,6-dihydro-3-methyl-2,6-dioxo-4-(trifluoromethyl)-1(2H)-pyrimidinyl]-4-fluorophenyl}imino}-4-oxo-3,5-thiazolidinediacetic acid], the “Preemergence herbicidal rating CHEAL” value is reported as 7.0 in data set [1] (rate 0.1250 kg/ha) and 9.0 in data set [1] (rate 0.2500 kg/ha). Moreover, in data set [2] (in vivo), the “Herbicidal rating ORYSAT (rice tolerance)” value is 0.0. In addition, the “ORYSAT herbicidal effect rating (rice tolerance)” value in data set [3] (in vivo) was determined as 0.0. Also, the “CYPSE herbicidal effect rating” value in data set [4] (0.2500 kg/ha) was found to be 0.0. The “ECHORC herbicidal effect rating” value in data set [5] (0.2500 kg/ha) was found to be 0.0. In data set [6] (Rate 0.2500 kg/ha), the “Herbicidal rating MOOVA” value is listed as 0.0. For the same compound, the “Postemergence herbicidal rating ECHCG” value in data set [7] (Rate 0.0158 kg/ha), in data set [7] (Rate 0.0315 kg/ha) and in data set [7] (Rate 0.0630 kg/ha) was 0.0 in each case. Moreover, the “Preemergence herbicidal rating ORYSAT” value was found to be 0.0 in data set [8] (rate 0.1250 kg/ha) and 1.0 in data set [8] (rate 0.2500 kg/ha).
For `CN1C(=O)C(CC(=O)OCCF)SC1=Nc1cc(-n2c(=O)cc(C(F)(F)F)n(C)c2=O)c(F)cc1Cl` (stereo not shown) [Compound 93, 2-Fluoroethyl 2-{{2-chloro-5-[3,6-dihydro-3-methyl-2,6-dioxo-4-(trifluoromethyl)-1(2H)-pyrimidinyl]-4-fluorophenyl}imino}-3-methyl-4-oxo-5-thiazolidineacetate], the CHEAL rating is listed as 3.0 in data set [1] (0.0313 kg/ha), 9.0 in data set [1] (0.0625 kg/ha), 9.0 in data set [1] (0.1250 kg/ha) and 9.0 in data set [1] (0.2500 kg/ha). Besides, the “Herbicidal rating ORYSAT (rice tolerance)” value turned out to be 0.0 in data set [2] (Rate 0.0313 kg/ha, flooded paddy, post-transplant rice, rated 3 to 4 weeks after treatment); 0.0 in data set [2] (Rate 0.0625 kg/ha, flooded paddy, post-transplant rice, rated 3 to 4 weeks after treatment); 0.0 in data set [2] (Rate 0.1250 kg/ha, flooded paddy, post-transplant rice, rated 3 to 4 weeks after treatment); 3.0 in data set [2] (Rate 0.2500 kg/ha, flooded paddy, post-transplant rice, rated 3 to 4 weeks after treatment). Further, the “ORYSAT herbicidal effect rating (rice tolerance)” value came out at 0.0 in data set [3] (0.0313 kg/ha, post-transplant rice, flooded paddy, rated 3-4 weeks after treatment); 0.0 in data set [3] (0.0625 kg/ha, post-transplant rice, flooded paddy, rated 3-4 weeks after treatment); 0.0 in data set [3] (0.1250 kg/ha, post-transplant rice, flooded paddy, rated 3-4 weeks after treatment); 3.0 in data set [3] (0.2500 kg/ha, post-transplant rice, flooded paddy, rated 3-4 weeks after treatment). For the same compound, the “CYPSE herbicidal effect rating” value in data set [4] (0.0313 kg/ha) is on record as 0.0; in data set [4] (0.0625 kg/ha), 0.0; in data set [4] (0.1250 kg/ha), 5.0; in data set [4] (0.2500 kg/ha), 9.0. Moreover, the “ECHORC herbicidal effect rating” value in data set [5] (0.0313 kg/ha) is 0.0; in data set [5] (0.0625 kg/ha), 3.0; in data set [5] (0.1250 kg/ha), 4.0; in data set [5] (0.2500 kg/ha), 7.0. The “Herbicidal rating MOOVA” value in data set [6] (Rate 0.0313 kg/ha), in data set [6] (Rate 0.0625 kg/ha), in data set [6] (Rate 0.1250 kg/ha) and in data set [6] (Rate 0.2500 kg/ha) was 9.0 throughout. The ECHCG herbicidal rating was determined as 0.0 in data set [7] (rate 0.0158 kg/ha), 2.0 in data set [7] (rate 0.0315 kg/ha) and 7.0 in data set [7] (rate 0.0630 kg/ha). The ORYSAT rating in data set [8] (0.0313 kg/ha) amounted to 0.0; in data set [8] (0.0625 kg/ha), 0.0; in data set [8] (0.1250 kg/ha), 2.0; in data set [8] (0.2500 kg/ha), 4.0.
